How the values of experiment [1] were obtained: Note that all equilibria present in a receptor/pyranoside mixture contribute toward the calculated BC50 value, and a higher 1/BC50 value is indicative of a higher overall binding strength.
As each 1/BC50 plot is a measure of affinity between 1 and pyranosides, comparing the plots of two or more pyranosides provides a means of assessing selectivity.
The BC50^0 values of the pyranosides for receptor 1 were determined using Eq. 17.

The conditions of experiment [2]: CDCl3, 25° C., extrapolated from a Van't Hoff plot.
For experiment [3] the following is noted: 1/BC50 plot, pyranoside 0 to 10.0 mM.
The source holds these as a separate data set.
Experiment in experiment [4]: not given
This is another data set of the same source.

Where [5] appears, read: 1:2 binding (K2), CDCl3, Van't Hoff.

The structures appear in SMILES notation. Several values for one entry are separate records, joined by “and”; a condition that tells them apart may be missing. Equal values may be shown once. Read-outs that look alike come from different tables or passages of the source.

We go through one compound from patent US9296688B2, “Carbohydrate-selective receptors” (New York University, priority 2012, dated 2016).

`c1c[nH]c(CNCc2cc(CNCc3ccc[nH]3)cc(-c3cc(CNCc4ccc[nH]4)cc(CNCc4ccc[nH]4)c3)c2)c1` [Compound 1, N,N′,N′N″N′″-([1,1′-biphenyl]-3,3′,5,5′-tetrayltetrakis(methylene))tetrakis (1-(1H-pyrrol-2-yl)methanamine)]: the binding order entry is reported as “α-Man>β-Man>β-Glc” in experiment [1] (higher pyranoside concentrations (>1.0 mM)) and “α-Man>β-Glc>β-Man” in experiment [1] (pyranoside from 0.3 mM to 1.0 mM). In addition, the “K3 (2:1 receptor:pyranoside binding)” value in experiment [2] was 3 M⁻¹. Further, the “concentration of α-Man where the maximum 1/BC50 value (maximum selectivity) is obtained” value in experiment [3] is listed as 0.8 mM. Further, the “ΔH°” value under setting [5] is -20.2 ± 1.2 kcal/mol. In addition, the “ΔS°” value under setting [5] was −52±4 e.u. Also, where the note is “2:1 binding, 25° C.”, the “interaction parameter α for K3 (K3 / reference Ka)” value is “at least 2.7”. Besides, the “approximate baseline (reference) Ka, 1:1 binding of 1 to the β-face of β-Man” value (from NMR detection limit, no NOEs on β-face, 0.5 mM 1, 1.0 mM β-Man, 25° C.) was ≤ 104 M⁻¹. Besides, the Kdimer in experiment [4] (CDCl3, 5° C.) was 24.2 ± 0.5 M⁻¹; in experiment [4] (CDCl3, 10° C.) it was 20.8 M⁻¹; in experiment [4] (CDCl3, 15° C.) it was 16.9 M⁻¹; in experiment [4] (CDCl3, 20° C.) it was 15.3 M⁻¹; in experiment [4] (CDCl3, 25° C.), 13.0 M⁻¹ and 13.0 ± 0.5 M⁻¹.
